Results: ChEMBL document CHEMBL4385611, “Difluoromethylene at the γ-Lactam α-Position Improves 11-Deoxy-8-aza-PGE1 Series EP4 Receptor Binding and Activity: 11-Deoxy-10,10-difluoro-8-aza-PGE1 Analog (KMN-159) as a Potent EP4 Agonist” (J Med Chem, 2019)

How the values were obtained:
[1] = Genotoxicity in Salmonella typhimurium TA98 at 0.6 to 100 uM after 96 hrs by photometry analysis; format: toxicity; settings: salmonella enterica subsp. enterica serovar typhimurium
[2] = target: T1, Prostaglandin E2 receptor EP3 subtype (Homo sapiens, UniProt P43115); experiment: Displacement of [3H]PGE2 from human recombinant EP3 receptor expressed in HEK293 cell membranes after 120 mins by liquid scintillation counting method
T1 sequence (P43115 whole entry): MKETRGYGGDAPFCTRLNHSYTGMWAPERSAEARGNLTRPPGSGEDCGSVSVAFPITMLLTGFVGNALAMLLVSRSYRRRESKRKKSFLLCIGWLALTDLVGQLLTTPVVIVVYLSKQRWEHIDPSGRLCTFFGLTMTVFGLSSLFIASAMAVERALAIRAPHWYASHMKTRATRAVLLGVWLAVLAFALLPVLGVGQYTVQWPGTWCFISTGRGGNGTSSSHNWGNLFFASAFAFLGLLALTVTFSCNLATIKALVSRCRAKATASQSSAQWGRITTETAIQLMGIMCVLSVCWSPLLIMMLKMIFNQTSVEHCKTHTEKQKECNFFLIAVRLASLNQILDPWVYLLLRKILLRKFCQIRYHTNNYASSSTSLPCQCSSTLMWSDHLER

[3] = Apparent permeability across apical to basolateral side in human Caco2 cells assessed as drug recovery at 5 uM after 120 mins by LC-MS/MS analysis; format: ADME, cell-based; settings: Caco-2, read-out: Drug recovery
[4] = Intrinsic clearance in human liver microsomes at 0.1 uM by HPLC-MS/MS analysis; format: ADME, Microsome; settings: read-out: CLH
[5] = Genotoxicity in Salmonella typhimurium TA100 at 0.6 to 100 uM after 96 hrs by photometry analysis; format: toxicity; settings: salmonella enterica subsp. enterica serovar typhimurium
[6] = tested on: CHO-K1; experiment: Clastogenic activity in CHOK1 cells after 4 hrs in presence of S9 fraction by micronucleus assay; format: toxicity, cell-based, Cricetulus griseus; settings: chinese hamster, s9, 4 h
[7] = target: Cytochrome P450 2C19 (Homo sapiens, UniProt P33261); experiment: Inhibition of CYP2C19 in human liver microsomes using omeprazole as substrate at 10 uM after 10 mins by HPLC-MS/MS analysis; format: ADME
[8] = Half-life in human liver microsomes at 0.1 uM by HPLC-MS/MS analysis; format: ADME, Microsome
[9] = tested on: CHO-K1; experiment: Clastogenic activity in CHOK1 cells after 4 hrs in absence of S9 fraction by micronucleus assay; format: toxicity, cell-based, Cricetulus griseus; settings: chinese hamster, cho-k1, 4 h
[10] = Genotoxicity in Salmonella typhimurium TA1537 at 0.6 to 100 uM after 96 hrs by photometry analysis; format: toxicity; settings: salmonella enterica subsp. enterica serovar typhimurium
[11] = Mutagenicity in Salmonella typhimurium TA1537 after 96 hrs in absence of rat liver S9 fraction by Ames test; format: toxicity; settings: salmonella enterica subsp. enterica serovar typhimurium, s9, 96 h
[12] = Mutagenicity in Salmonella typhimurium TA1535 after 96 hrs in presence of rat liver S9 fraction by Ames test; format: toxicity, subcellular; settings: salmonella enterica subsp. enterica serovar typhimurium, s9, 96 h
[13] = target: Cytochrome P450 2C9 (Homo sapiens, UniProt P11712); experiment: Inhibition of CYP2C9 in human liver microsomes using diclofenac as substrate at uM after 10 mins by HPLC-MS/MS analysis; format: ADME
[14] = target: T2, Prostaglandin E2 receptor EP2 subtype (Homo sapiens, UniProt P43116); experiment: Agonist activity at human EP2 receptor expressed in HEK293T/17 cells assessed as increase in intracellular cAMP level incubated for 30 mins by ELISA; format: functional, cell-based
[15] = target: T2, Prostaglandin E2 receptor EP2 subtype; experiment: Agonist activity at human EP2 receptor expressed in HEK293T/17 cells assessed as increase in GalphaS-mediated CREB activation measured after 6 to 24 hrs by SEAP reporter gene-based chemiluminescence assay; format: functional, cell-based
[16] = Apparent permeability across apical to basolateral side in MDCK-MDR1 cells 120 mins by LC-MS/MS analysis; format: ADME, cell-based, Canis lupus familiaris; settings: dog
[17] = Apparent permeability across basolateral to apical side in MDCK-MDR1 cells 120 mins by LC-MS/MS analysis; format: ADME, cell-based, Canis lupus familiaris; settings: dog
[18] = Genotoxicity in Salmonella typhimurium TA1535 at 0.6 to 100 uM after 96 hrs by photometry analysis; format: toxicity; settings: salmonella enterica subsp. enterica serovar typhimurium
[19] = Mutagenicity in Salmonella typhimurium TA98 after 96 hrs in absence of rat liver S9 fraction by Ames test; format: toxicity; settings: salmonella enterica subsp. enterica serovar typhimurium, s9, 96 h
[20] = target: Cytochrome P450 3A (Homo sapiens, UniProt P08684+P20815+Q9HB55+P24462); experiment: Inhibition of CYP3A in human liver microsomes using midazolam as substrate at 10 uM after 10 mins by HPLC-MS/MS analysis; format: ADME
[21] = target: T2, Prostaglandin E2 receptor EP2 subtype; experiment: Displacement of [3H]PGE2 from human recombinant EP2 receptor expressed in HEK293 cell membranes after 120 mins by liquid scintillation counting method
[22] = Efflux ratio of apparent permeability from basolateral to apical side over apical to basolateral side in human Caco2 cells at 5 uM after 120 mins by LC-MS/MS analysis; format: ADME, cell-based; settings: Caco-2
[23] = target: T3, Cytochrome P450 2B6 (Homo sapiens, UniProt P20813); experiment: Inhibition of CYP2B6 in human liver microsomes using bupropion as substrate at 10 uM after 10 mins by HPLC-MS/MS analysis; format: ADME
T3 sequence (P20813 whole entry): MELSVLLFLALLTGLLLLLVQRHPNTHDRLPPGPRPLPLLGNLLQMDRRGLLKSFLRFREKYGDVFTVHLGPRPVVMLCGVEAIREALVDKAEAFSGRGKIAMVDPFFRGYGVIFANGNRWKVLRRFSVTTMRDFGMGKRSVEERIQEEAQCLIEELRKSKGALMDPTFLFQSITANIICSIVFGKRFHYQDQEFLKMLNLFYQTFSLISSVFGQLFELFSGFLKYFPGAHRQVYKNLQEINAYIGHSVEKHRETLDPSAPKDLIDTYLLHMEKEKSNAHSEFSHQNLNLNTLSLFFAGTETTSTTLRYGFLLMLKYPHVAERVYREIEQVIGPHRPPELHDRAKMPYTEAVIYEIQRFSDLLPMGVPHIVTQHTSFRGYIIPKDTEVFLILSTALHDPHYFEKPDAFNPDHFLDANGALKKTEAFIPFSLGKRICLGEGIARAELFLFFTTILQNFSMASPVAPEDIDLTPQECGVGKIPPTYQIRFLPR

[24] = Mutagenicity in Salmonella typhimurium TA98 after 96 hrs in presence of rat liver S9 fraction by Ames test; format: toxicity, subcellular; settings: salmonella enterica subsp. enterica serovar typhimurium, s9, 96 h
[25] = target: Prostaglandin E2 receptor EP4 subtype (Homo sapiens, UniProt P35408); experiment: Agonist activity at human EP4 receptor expressed in HEK293T/17 cells assessed as increase in GalphaS-mediated CREB activation measured after 6 to 24 hrs by SEAP reporter gene-based chemiluminescence assay; format: functional, cell-based
[26] = Half-life in human blood at 1 uM by HPLC-MS/MS analysis; format: ADME, tissue-based
[27] = target: Voltage-gated inwardly rectifying potassium channel KCNH2 (Homo sapiens, UniProt Q12809); experiment: Inhibition of human ERG expressed in CHOK1 cells assessed as reduction in tail current amplitude by automated patch-clamp method; format: cell-based
[28] = n-Octanol-PBS buffer partition coefficient, log D of the compound at 100 uM at pH 7.4 after 1 hr by LC-MS/MS analysis; format: physicochemical

T2 sequence (P43116 whole entry): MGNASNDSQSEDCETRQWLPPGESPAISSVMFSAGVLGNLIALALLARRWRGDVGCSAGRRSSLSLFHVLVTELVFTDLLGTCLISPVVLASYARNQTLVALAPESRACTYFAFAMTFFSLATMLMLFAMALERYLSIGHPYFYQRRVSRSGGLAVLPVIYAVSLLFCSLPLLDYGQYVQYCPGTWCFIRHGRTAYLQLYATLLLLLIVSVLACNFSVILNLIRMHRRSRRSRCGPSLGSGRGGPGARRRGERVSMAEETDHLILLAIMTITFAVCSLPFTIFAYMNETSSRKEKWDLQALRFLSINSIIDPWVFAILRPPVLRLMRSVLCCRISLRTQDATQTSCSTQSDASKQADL
Sequence of Prostaglandin E2 receptor EP4 subtype (P35408 whole entry): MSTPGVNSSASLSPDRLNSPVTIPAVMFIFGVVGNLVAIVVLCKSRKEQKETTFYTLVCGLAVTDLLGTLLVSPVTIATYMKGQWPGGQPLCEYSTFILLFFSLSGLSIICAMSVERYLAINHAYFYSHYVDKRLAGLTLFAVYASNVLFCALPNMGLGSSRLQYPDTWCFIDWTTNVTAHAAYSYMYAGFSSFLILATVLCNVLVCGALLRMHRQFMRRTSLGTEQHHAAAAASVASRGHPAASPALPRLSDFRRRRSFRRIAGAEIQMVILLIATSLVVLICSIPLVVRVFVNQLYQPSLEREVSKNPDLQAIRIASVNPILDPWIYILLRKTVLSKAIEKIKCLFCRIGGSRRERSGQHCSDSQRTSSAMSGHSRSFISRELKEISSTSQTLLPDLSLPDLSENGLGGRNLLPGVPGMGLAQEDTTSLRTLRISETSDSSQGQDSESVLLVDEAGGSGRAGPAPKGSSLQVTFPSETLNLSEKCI
Sequence of Cytochrome P450 2C19 (P33261 whole entry): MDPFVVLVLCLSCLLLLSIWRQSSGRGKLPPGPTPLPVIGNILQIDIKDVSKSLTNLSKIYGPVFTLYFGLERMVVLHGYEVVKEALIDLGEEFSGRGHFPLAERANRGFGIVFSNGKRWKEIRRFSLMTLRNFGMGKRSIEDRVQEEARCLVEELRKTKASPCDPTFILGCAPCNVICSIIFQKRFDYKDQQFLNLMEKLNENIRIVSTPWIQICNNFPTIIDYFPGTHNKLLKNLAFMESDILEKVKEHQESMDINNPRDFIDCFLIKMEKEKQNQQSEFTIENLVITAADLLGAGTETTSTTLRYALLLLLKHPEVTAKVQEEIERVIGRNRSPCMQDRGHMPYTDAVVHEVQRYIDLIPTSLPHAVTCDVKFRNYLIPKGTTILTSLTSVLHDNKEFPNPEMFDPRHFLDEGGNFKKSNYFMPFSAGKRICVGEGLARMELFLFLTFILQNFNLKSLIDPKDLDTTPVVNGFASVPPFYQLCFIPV
Sequence of Cytochrome P450 2C9 (P11712 whole entry): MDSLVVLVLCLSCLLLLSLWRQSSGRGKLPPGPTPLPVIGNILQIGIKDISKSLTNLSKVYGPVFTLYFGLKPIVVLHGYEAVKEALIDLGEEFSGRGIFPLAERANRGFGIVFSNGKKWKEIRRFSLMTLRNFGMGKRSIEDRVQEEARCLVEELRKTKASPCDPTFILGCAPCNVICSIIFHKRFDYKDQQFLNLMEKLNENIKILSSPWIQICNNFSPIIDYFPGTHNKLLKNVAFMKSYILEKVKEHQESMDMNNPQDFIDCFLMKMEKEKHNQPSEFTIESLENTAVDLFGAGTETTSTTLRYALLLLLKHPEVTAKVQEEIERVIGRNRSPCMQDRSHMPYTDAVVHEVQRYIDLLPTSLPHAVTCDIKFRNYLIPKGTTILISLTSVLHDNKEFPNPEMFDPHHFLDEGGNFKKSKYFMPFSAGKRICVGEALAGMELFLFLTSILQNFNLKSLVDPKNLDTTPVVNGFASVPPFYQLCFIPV
Sequence of Voltage-gated inwardly rectifying potassium channel KCNH2 (Q12809 whole entry): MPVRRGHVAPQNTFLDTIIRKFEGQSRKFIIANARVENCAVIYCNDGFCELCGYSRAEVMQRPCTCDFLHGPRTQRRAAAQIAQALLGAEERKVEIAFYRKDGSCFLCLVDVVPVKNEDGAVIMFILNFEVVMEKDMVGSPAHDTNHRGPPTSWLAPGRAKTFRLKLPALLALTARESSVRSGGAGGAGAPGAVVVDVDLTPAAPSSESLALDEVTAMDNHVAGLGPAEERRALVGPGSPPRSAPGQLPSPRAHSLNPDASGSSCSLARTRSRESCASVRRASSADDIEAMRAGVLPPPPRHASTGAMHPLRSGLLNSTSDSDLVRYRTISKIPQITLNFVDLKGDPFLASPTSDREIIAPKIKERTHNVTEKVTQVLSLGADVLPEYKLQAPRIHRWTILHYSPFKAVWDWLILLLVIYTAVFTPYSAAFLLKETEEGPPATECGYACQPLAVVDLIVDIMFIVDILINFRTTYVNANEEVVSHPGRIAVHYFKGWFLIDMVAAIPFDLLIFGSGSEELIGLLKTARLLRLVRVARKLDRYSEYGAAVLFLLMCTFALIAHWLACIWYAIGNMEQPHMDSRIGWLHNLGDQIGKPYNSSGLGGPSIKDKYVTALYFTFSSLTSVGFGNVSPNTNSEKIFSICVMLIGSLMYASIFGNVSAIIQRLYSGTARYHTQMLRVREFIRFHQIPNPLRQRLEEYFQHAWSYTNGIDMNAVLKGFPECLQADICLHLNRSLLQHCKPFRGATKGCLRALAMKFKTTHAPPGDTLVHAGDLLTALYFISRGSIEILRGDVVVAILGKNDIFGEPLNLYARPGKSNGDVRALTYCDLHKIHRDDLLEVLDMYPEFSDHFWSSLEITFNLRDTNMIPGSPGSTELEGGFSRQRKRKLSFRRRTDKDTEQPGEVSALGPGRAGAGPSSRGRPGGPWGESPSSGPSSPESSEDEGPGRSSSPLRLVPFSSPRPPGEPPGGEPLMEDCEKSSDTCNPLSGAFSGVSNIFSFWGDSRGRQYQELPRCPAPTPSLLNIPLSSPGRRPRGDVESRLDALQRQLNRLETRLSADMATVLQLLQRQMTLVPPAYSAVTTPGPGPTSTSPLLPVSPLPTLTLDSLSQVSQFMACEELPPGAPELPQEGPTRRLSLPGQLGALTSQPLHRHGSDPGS

| Compound | Activity [1] | Ki [2] [µM] | recovery at 2 h, 5 µM [3] [%] | microsomal CLint at 0.1 µM [4] [µL/min/mg] | Activity [5] | Activity [6] | inhibition (INH) [7] | half-life at 0.1 µM [8] [h] | Activity [9] | Activity [10] | Activity [11] | Activity [12] | inhibition (INH) [13] | EC50 [14] [µM] | EC50 [15] [µM] | Activity [18] | Activity [19] | inhibition (INH) [20] | Ki [21] [µM] | efflux ratio at 2 h, 5 µM [22] | other results |
| --- | --- | --- | --- | --- | --- | --- | --- | --- | --- | --- | --- | --- | --- | --- | --- | --- | --- | --- | --- | --- | --- |
| CCC#CC[C@H](C)[C@H](O)/C=C/[C@H]1CC(F)(F)C(=O)N1CCCCCCC(=O)O | Non-Toxic | 0.258 | 94 | < 116 | Non-Toxic | Non-Toxic | Not Active | > 1 | Non-Toxic | Non-Toxic | Non-Toxic | Non-Toxic | Not Active | > 10 | 7.36 | Non-Toxic | Non-Toxic | Not Active | 4.97 | 1.5 | Papp A→B at 2 h [16]: 0.59 ×10⁻⁶ cm/s; Papp B→A at 2 h [17]: 11.8 ×10⁻⁶ cm/s; inhibition (INH) [23]: Not Active; Activity [24]: Non-Toxic; EC50 [25]: 0.088 nM; half-life at 1 µM [26]: > 2 h; IC50 [27]: 25.9 µM; logD at 1 h, 100 µM [28]: 0.11 |
| CCC#CC[C@H](C)[C@H](O)/C=C/[C@H]1CCC(=O)N1CCCCCCC(=O)O | Non-Toxic | 0.88 | 103 | < 116 | Non-Toxic | Non-Toxic | Not Active | > 1 | Non-Toxic | Non-Toxic | Non-Toxic | Non-Toxic | Not Active | > 10 | > 10 | Non-Toxic | Non-Toxic | Not Active | 12.2 | 1.6 | inhibition (INH) [23]: Not Active; Activity [24]: Non-Toxic; EC50 [25]: 0.476 nM; half-life at 1 µM [26]: > 2 h; IC50 [27]: 29 µM; logD at 1 h, 100 µM [28]: -0.07 |
